# From patent US6403631B1, “Method and compositions for enhancing pregnancy success in an animal” (Equitech Laboratories, Inc., priority 1995, dated 2002)
# How the values were obtained:
# mares [1] = experiment: Bolus melatonin at estrus: conception, plasma progesterone and conceptus diameter (Example 1B); type: in vivo; conditions: 100 μg at estrus
# Procedure: B. Effect on conception of bolus administration of melatonin during estrus. […] Pregnancy was monitored by ultrasonography after day 10 post-ovulation. Blood samples were collected daily from the day of treatment to day 16 post-ovulation, when conceptuses were removed. Conceptus diameter was measured daily beginning day 10 post-ovulation with ultrasound.
# [2] = test system: corpora lutea segments from cycling mares; experiment: In vitro progesterone production by corpus luteum segments (Example 8); type: cell-based; conditions: 1, 10 or 100 nM melatonin; presence or absence of 100 ng hCG
# Procedure: Corpus luteum tissue was collected surgically and was dissected into segments approximately 2×2 mm^2. Segments were incubated in the following manner: [table] At completion of culture, segments were frozen until assayed for DNA content. All media progesterone concentrations were subsequently adjusted for DNA content of the appropriate segment.
# [3] = test system: conceptus membrane segments; experiment: In vitro estradiol production by day 16 conceptus membrane segments (Example 7); type: cell-based, mares
# Procedure: Treatment with melatonin at estrus results in greater in vitro estradiol biosynthetic capability of day 16 conceptus membrane segments given androgen precursors. […] The extra-embryonic membranes were dissected into 4×4 mm^2 segments and cultured in the presence or absence of supplemental testosterone. Conceptus membrane fragments were cultured for 24 hours and the culture medium analyzed for estradiol.
# Results and conclusions. Following completion of culture, conceptus membrane segments were frozen and assayed for DNA content. All estradiol concentrations measured in culture media were then adjusted for the DNA content of the appropriate conceptus membrane segment.
# cows = experiment: Melatonin in cows: plasma progesterone (FIG. 5A); type: in vivo; conditions: vs saline control, initial results
# Source text: FIGS. 5A and 5B show the effect on plasma progesterone (P4) concentration (ng/ml), compared to a saline control, following administration of melatonin to cows and ewes in accordance with the subject invention.
# ewes [4] = conditions: orally administered to ewes; cited from earlier work
# accessory corpora lutea = experiment: Multiple melatonin administrations: accessory corpora lutea progesterone (Example 6); type: in vivo, mares; conditions: treatment just prior to formation of accessory corpora lutea (day 35-45 of pregnancy)
# Source text: Mares are unique in that they develop and ovulate a new cohort of follicles around day 35-45 of pregnancy. […] Mares which received melatonin treatment at estrus also received daily melatonin treatment from day +35 to day +45 of pregnancy.
# mares [5] = experiment: Melatonin at mid-diestrus: plasma progesterone (Example 4); type: in vivo; conditions: 100 μg on day 8 post-ovulation
# Procedure: Treatments were given at 10:59:45. Daily blood sampling was performed from estrus preceding treatment to 7 days after the next subsequent ovulation. Blood samples were collected every 30 minutes for 10 hours each day of sampling.
# hysterectomized mares = experiment: Melatonin at estrus, morning v. afternoon, in hysterectomized mares: plasma progesterone (Example 5); type: in vivo
# Procedure: Because hysterectomized mares are unable to generate a luteolytic secretion of prostaglandin F2α (PGF), luteal function and progesterone production continue longer than in uterine-intact mares.
# The experiment was repeated in full using the same design with the exception that melatonin or control injections were administered in the afternoon rather than the morning. Blood samples were collected daily from day of treatment for 30 days post-ovulation.
# ewes [6] = experiment: Bolus melatonin at estrus in ewes: plasma progesterone (Example 12); type: in vivo; conditions: 400 μg i.v., 2 to 3 doses at estrus; Day 5 to Day 15 post-estrus; vs saline
# Procedure: A. Effect of bolus administration of melatonin on progesterone levels. The effect of bolus melatonin administration during estrus on plasma progesterone was determined. The duration of the estrous cycle was also measured. Estrous cycles of ten ewes were monitored by daily behavioral monitoring with a vasectomized ram. […] Blood samples were collected daily for an entire estrous cycle. Melatonin-treated ewes (n=5) were administered 400 μg melatonin i.v. in the early morning (07:30 to 08:30hr) and late afternoon (16:30 to 17:30hr). Five ewes were treated similarly, but were administered saline as control at the same times. Estrus duration was approximately 24 to 36 hr, thus ewes were administered 2 to 3 doses of melatonin to assure treatment during estrus. Progesterone levels were higher from Day 5 to Day 15 post-estrus in melatonin-treated ewes compared with saline-treated ewes. The increased progesterone concentrations following administration of melatonin, as compared to a saline control, is shown in FIG. 5B.
# [7] = test system: human and bovine granulosa cells; conditions: in vitro; cited from earlier work
# cyclic pony mares [8] = experiment: Melatonin at proestrus or estrus: plasma hormones in the subsequent cycle (Example 3); type: in vivo
# Procedure: Blood samples were collected every 30 minutes and were collected daily through the next subsequent estrus and ovulation.
# pony mares = experiment: Bolus melatonin at estrus: plasma E2, P4, LH and cycle length (Example 1A); type: in vivo
# Procedure: A. Effect of bolus administration of melatonin on estradiol, progesterone, and luteinizing hormone levels. The effect of bolus melatonin administration during estrus on plasma estradiol (E2), progesterone (P4), and luteinizing hormone (LH) was determined. The interval from treatment to ovulation (OV1) and duration of the subsequent estrous cycle, ending at OV2, were also measured. Estrous cycles of eight pony mares were synchronized. Ovarian follicular activity was monitored daily, and sexual behavior was monitored with a stallion. Blood samples were collected daily. Upon detection of behavioral estrus and a 30 mm diameter follicle, mares were assigned to either a control group or melatonin group. Blood samples were collected for 8 hours (09:00 to 17:00) at 30 minute intervals. Melatonin-group mares were given an injection of 100 μg melatonin in 1 ml of sterile saline into the jugular vein, while control-group mares received 1 ml sterile saline.
# corpus luteum = experiment: Corpus luteum biopsy morphology after melatonin at estrus (Example 9); type: in vivo, mares; conditions: light and electron microscopy
# Source text: Following collection of conceptuses as described in Examples 7 and 8, mares were taken to surgery and the corpus luteum biopsied. Biopsies were taken from each mare, control and melatonin-treated, for both light and electron microscopy.
# marmoset corpus luteum = conditions: in vivo perfusion, marmosets; cited from earlier work
# sheep = conditions: subcutaneous, multiple daily administrations; cited from earlier work
# cyclic pony mares [9] = experiment: Melatonin at proestrus: plasma melatonin (RIA), E2, P4, LH (Example 2); conditions: 100 μg at proestrus
# Procedure: Treatments were administered at 09:59:45 at proestrus only. Test animals were divided into two groups: control (1.0 ml 0.9% saline, n=3), and melatonin (100 μg melatonin in 1.0 ml 0.9% saline, n=3). Ovarian follicular activity was monitored daily by rectal palpation and/or ultrasonography. Blood samples were collected every 10 minutes for a period of 8 hours at proestrus, estrus, and diestrus. Plasma melatonin concentrations were measured by radioimmunoassay (RIA) to determine the effect of control and melatonin treatments administered at proestrus.
# [10] = 100 μg i.v. at estrus, vs control
smiles,measurement,setting,value
"COc1ccc2[nH]cc(CCNC(C)=O)c2c1 [melatonin, N-acetyl-5-methoxytryptamine]",plasma progesterone concentrations,"mares [1]; bred mares, to day 16 post-ovulation, p=0.026 vs control",increased
same,conceptus diameter,"mares [1]; day 13 to 15 post-ovulation, vs control",larger
same,early embryonic growth rate,"mares [1]; days 10 to 13 post-ovulation, ultrasound",did not appear to differ
same,"media progesterone concentrations, adjusted for DNA content",[2],no effect
same,"estradiol concentrations in culture media, adjusted for DNA content","[3]; conceptuses from mares treated at estrus, no supplemental testosterone, 24 hours culture",did not differ
same,"estradiol production in vitro, adjusted for DNA content","[3]; conceptuses from mares treated at estrus, with testosterone, p=0.01 vs all other groups",greater
same,plasma progesterone (P4) concentrations,cows,no effect
same,plasma progesterone concentrations,ewes [4],increased
same,progesterone production by accessory corpora lutea,accessory corpora lutea,enhanced progesterone production
same,plasma progesterone concentrations during 10-hour sampling period,mares [5],did not alter
same,plasma progesterone concentrations throughout rest of luteal phase,mares [5],Nor were plasma progesterone concentrations different
same,plasma progesterone concentrations following next subsequent ovulation,"mares [5]; until day 7 post-ovulation, p=0.034",higher
same,plasma progesterone concentrations,"hysterectomized mares; 100 μg at estrus, morning or afternoon, p<0.03 vs control",higher
same,"plasma progesterone, melatonin-treated vs saline-treated mares",hysterectomized mares; at approximate time of luteal regression (day 14 to 16),no longer detectable differences
same,progesterone levels,ewes [6],higher
same,production of progesterone,[7],enhanced
same,plasma estradiol concentrations at time of treatment,cyclic pony mares [8]; 100 μg at estrus,acute decline
same,estradiol concentrations during subsequent estrous cycle,"cyclic pony mares [8]; 100 μg at proestrus or estrus, p=0.001 vs control",different
same,"plasma progesterone response, ovulation through next ovulation","cyclic pony mares [8]; 100 μg at proestrus or estrus, p=0.007 vs control",higher
same,plasma LH concentrations,"cyclic pony mares [8]; 100 μg at proestrus or estrus, vs controls",did not differ
same,treatment at proestrus compared with treatment at estrus,cyclic pony mares [8]; 100 μg melatonin,not different
same,"plasma progesterone, standardized analysis","cyclic pony mares [8]; ovulation to day 7 and backwards from next ovulation, p=0.01 vs control",higher
same,pattern of E2 over the cycle,"pony mares; 100 μg i.v. at estrus, control pattern cubic, increases at OV1 and OV2","quadratic, with increases noted only at OV2"
same,plasma P4 levels vs control,"pony mares; 100 μg i.v. at estrus, p<0.007",higher
same,duration of subsequent estrous cycle (OV1 to OV2),pony mares; [10],did not differ between groups
same,interval from treatment to OV1,pony mares; [10],did not differ between groups
same,plasma LH levels,pony mares; [10],not different between groups
same,plasma E2 secretion following administration,"pony mares; 100 μg melatonin i.v. at estrus, 8 h sampling, p<0.001",declined
same,corpus luteum morphology,corpus luteum,greater percent of cells with pleomorphic nuclei
same,progesterone production by corpus luteum,marmoset corpus luteum,stimulated
same,progesterone concentrations,sheep,increased
same,plasma LH concentrations,"cyclic pony mares [9]; 8-hour proestrus sampling, vs control",not different
same,plasma melatonin concentrations vs control,cyclic pony mares [9]; by 3 hours post-treatment,not different
same,plasma estradiol concentrations over 8-hour sampling at proestrus,cyclic pony mares [9]; no change in controls,decreased following treatment
same,mean plasma progesterone (P4) concentrations,"cyclic pony mares [9]; sampled at diestrus, p=0.001 vs control",significantly higher
same,mean plasma estradiol concentrations,"cyclic pony mares [9]; sampled at estrus, p=0.006 vs control",lower
same,mean plasma estradiol concentrations,"cyclic pony mares [9]; sampled at proestrus or diestrus, vs control",not different
same,mean plasma progesterone (P4) concentrations,"cyclic pony mares [9]; sampled at proestrus or estrus, vs control",not different
same,plasma melatonin concentrations after administration,"cyclic pony mares [9]; vs control, p=0.0001, RIA",higher
"C[C@]12CC[C@H]3[C@@H](CCC4=CC(=O)CC[C@@]43C)[C@@H]1CC[C@@H]2O [Testosterone, testosterone]",estradiol production by conceptuses in vitro,[3]; testosterone supplied to the culture,significantly increased
